Here are results for 14 molecules from ChEMBL document CHEMBL6120985, “Discovery of a potent PARP1 PROTAC as a chemosensitizer for the treatment of colorectal cancer” (Eur J Med Chem, 2025).

The first data set deals with T1, Protein cereblon/Poly [ADP-ribose] polymerase 1 (Homo sapiens, UniProt P09874+Q96SW2). In words: PROTAC activity at CRBN/PARP1 in human HCT-116 cells assessed as degradation of PARP1. The class given is cell-based.
Conditions: not given
Target sequence in this assay (P09874 whole entry): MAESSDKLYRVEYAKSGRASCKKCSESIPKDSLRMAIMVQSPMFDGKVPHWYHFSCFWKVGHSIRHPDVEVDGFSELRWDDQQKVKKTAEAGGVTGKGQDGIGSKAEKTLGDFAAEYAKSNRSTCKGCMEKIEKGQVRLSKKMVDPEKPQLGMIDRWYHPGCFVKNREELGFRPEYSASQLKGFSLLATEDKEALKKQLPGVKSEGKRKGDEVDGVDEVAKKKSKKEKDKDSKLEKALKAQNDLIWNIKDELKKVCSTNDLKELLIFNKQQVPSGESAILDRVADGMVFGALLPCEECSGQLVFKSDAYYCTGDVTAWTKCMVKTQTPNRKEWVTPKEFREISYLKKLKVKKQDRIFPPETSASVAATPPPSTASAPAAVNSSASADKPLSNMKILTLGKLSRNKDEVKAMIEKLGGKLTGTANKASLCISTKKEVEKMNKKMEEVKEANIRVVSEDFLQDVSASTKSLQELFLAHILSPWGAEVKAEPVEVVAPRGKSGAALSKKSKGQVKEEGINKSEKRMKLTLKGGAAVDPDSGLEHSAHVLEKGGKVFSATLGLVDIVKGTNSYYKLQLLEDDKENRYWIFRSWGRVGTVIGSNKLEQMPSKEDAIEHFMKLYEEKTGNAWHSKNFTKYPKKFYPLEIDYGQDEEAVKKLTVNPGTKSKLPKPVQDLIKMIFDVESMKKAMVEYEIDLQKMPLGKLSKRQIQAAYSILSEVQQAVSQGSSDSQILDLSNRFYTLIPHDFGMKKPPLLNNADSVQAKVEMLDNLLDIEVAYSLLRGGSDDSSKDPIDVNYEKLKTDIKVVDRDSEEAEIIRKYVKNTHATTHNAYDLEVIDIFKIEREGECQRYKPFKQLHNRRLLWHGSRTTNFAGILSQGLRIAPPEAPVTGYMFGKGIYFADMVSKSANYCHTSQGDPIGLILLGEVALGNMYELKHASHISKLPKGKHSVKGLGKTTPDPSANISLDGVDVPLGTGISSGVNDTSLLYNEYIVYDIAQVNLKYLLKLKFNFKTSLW
Target sequence in this assay (Q96SW2 whole entry): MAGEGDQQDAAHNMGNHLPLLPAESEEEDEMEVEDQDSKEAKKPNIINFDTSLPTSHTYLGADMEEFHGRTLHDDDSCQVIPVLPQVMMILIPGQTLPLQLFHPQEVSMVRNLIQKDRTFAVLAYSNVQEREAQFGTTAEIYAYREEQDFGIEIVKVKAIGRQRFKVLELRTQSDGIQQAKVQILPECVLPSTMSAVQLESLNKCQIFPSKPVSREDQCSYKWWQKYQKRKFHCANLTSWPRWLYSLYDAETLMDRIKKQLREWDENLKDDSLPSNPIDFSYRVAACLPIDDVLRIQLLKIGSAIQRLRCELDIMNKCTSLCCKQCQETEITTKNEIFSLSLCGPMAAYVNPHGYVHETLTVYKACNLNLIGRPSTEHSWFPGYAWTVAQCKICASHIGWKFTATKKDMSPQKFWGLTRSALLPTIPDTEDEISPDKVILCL
With `NC(=O)c1cccc2cn(-c3ccc([C@@H]4CCCN(C(=O)COCCOCCNc5ccc6c(c5)C(=O)N(C5CCC(=O)NC5=O)C6=O)C4)cc3)nc12` (stereo partly drawn), the DC50 was more than 20000 nM.
As for `NC(=O)c1cccc2cn(-c3ccc([C@@H]4CCCN(C(=O)COCCOCCOCCOCCNc5ccc6c(c5)C(=O)N(C5CCC(=O)NC5=O)C6=O)C4)cc3)nc12` (stereo partly drawn), the DC50 came out at 60 nM.
On to `NC(=O)c1cccc2cn(-c3ccc([C@@H]4CCCN(C(=O)CC5CCN(CCC6CCN(CC7CCN(c8ccc9c(c8)C(=O)N(C8CCC(=O)NC8=O)C9=O)CC7)CC6)CC5)C4)cc3)nc12` (stereo partly drawn), for which the DC50 was 40 nM.
Take `NC(=O)c1cccc2cn(-c3ccc([C@@H]4CCCN(C(=O)C5CCN(CC6CCN(c7ccc8c(c7)C(=O)N(C7CCC(=O)NC7=O)C8=O)C6)CC5)C4)cc3)nc12` (stereo partly drawn): the DC50 was more than 20000 nM.
Still for that read-out and setting: next, `NC(=O)c1cccc2cn(-c3ccc([C@@H]4CCCN(C(=O)C5CCN(CC6CCN(c7ccc8c(c7)C(=O)N(C7CCC(=O)NC7=O)C8=O)CC6)CC5)C4)cc3)nc12` (stereo partly drawn): more than 20000 nM; `NC(=O)c1cccc2cn(-c3ccc([C@@H]4CCCN(C(=O)CC5CCN(C(=O)CC6CCN(CC7CCN(c8ccc9c(c8)C(=O)N(C8CCC(=O)NC8=O)C9=O)CC7)CC6)CC5)C4)cc3)nc12` (stereo partly drawn): 230 nM.
On the same count and under the same terms, next, `NC(=O)c1cccc2cn(-c3ccc([C@@H]4CCCN(C(=O)CC5CCN(CCC6CCN(CC7CCN(c8ccc9c(c8)C(=O)N(C8CCC(=O)NC8=O)C9=O)C7)CC6)CC5)C4)cc3)nc12` (stereo partly drawn): more than 20000 nM.
Still for that read-out and setting: next, `NC(=O)c1cccc2cn(-c3ccc([C@@H]4CCCN(C(=O)CC5CCN(C(=O)CC6CCN(C(=O)C7CCN(c8ccc9c(c8)C(=O)N(C8CCC(=O)NC8=O)C9=O)CC7)CC6)CC5)C4)cc3)nc12` (stereo partly drawn): more than 20000 nM; `NC(=O)c1cccc2cn(-c3ccc([C@@H]4CCCN(C(=O)COCCOCCOCCNc5ccc6c(c5)C(=O)N(C5CCC(=O)NC5=O)C6=O)C4)cc3)nc12` (stereo partly drawn): more than 20000 nM; `NC(=O)c1cccc2cn(-c3ccc([C@@H]4CCCN(C(=O)CCCCCCCCNc5ccc6c(c5)C(=O)N(C5CCC(=O)NC5=O)C6=O)C4)cc3)nc12` (stereo partly drawn): 2210 nM.
In the case of `NC(=O)c1cccc2cn(-c3ccc([C@@H]4CCCN(C(=O)CC5CCN(C(=O)CC6CCN(CC7CCN(c8ccc9c(c8)C(=O)N(C8CCC(=O)NC8=O)C9=O)C7)CC6)CC5)C4)cc3)nc12` (stereo partly drawn), the DC50 was 20100 nM.

In a further data set the target is T1, Protein cereblon/Poly [ADP-ribose] polymerase 1. In words: PROTAC activity at CRBN/PARP1 in human HCT-116 cells assessed as maximum degradation of PARP1 relative to control.
Conditions: not given
It is filed as cell-based.
Target sequence in this assay (P09874 2-1014 limits assumed): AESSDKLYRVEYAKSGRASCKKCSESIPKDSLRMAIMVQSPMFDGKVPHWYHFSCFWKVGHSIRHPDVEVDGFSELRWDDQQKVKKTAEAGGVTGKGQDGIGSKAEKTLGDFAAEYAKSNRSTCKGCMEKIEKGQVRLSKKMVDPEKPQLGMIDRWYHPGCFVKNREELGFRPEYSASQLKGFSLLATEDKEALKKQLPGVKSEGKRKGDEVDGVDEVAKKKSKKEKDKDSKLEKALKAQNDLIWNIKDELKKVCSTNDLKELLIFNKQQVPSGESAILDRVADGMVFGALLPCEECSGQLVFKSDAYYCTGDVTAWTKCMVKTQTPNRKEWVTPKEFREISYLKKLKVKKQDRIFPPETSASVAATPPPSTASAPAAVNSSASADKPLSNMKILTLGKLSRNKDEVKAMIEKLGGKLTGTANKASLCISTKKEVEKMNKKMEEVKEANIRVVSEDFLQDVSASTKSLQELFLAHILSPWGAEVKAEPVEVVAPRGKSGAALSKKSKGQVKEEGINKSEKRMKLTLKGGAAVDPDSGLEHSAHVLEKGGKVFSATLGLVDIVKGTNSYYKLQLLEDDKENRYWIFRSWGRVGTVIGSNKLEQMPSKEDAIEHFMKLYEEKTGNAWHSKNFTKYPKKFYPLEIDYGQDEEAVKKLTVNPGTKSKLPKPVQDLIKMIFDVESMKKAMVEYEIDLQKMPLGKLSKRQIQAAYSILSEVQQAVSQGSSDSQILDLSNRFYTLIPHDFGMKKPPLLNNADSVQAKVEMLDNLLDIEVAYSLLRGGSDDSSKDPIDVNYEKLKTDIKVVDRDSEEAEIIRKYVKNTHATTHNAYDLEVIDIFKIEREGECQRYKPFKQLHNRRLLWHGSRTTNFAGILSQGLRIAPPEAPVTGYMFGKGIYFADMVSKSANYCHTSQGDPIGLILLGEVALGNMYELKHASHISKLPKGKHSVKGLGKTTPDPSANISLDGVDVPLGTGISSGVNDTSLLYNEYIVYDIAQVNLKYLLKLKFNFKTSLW
Target sequence in this assay (Q96SW2 whole entry partner): as the sequence (Q96SW2 whole entry) above
In the case of `NC(=O)c1cccc2cn(-c3ccc([C@@H]4CCCN(C(=O)COCCOCCNc5ccc6c(c5)C(=O)N(C5CCC(=O)NC5=O)C6=O)C4)cc3)nc12` (stereo partly drawn), the Emax amounted to 49.1%.
The same measure, in the same setting: with `NC(=O)c1cccc2cn(-c3ccc([C@@H]4CCCN(C(=O)COCCOCCOCCOCCNc5ccc6c(c5)C(=O)N(C5CCC(=O)NC5=O)C6=O)C4)cc3)nc12` (stereo partly drawn) the figure was 78.9%.
The same measure, in the same setting: next, `NC(=O)c1cccc2cn(-c3ccc([C@@H]4CCCN(C(=O)CC5CCN(CCC6CCN(CC7CCN(c8ccc9c(c8)C(=O)N(C8CCC(=O)NC8=O)C9=O)CC7)CC6)CC5)C4)cc3)nc12` (stereo partly drawn): 57.1%.
`NC(=O)c1cccc2cn(-c3ccc([C@@H]4CCCN(C(=O)C5CCN(CC6CCN(c7ccc8c(c7)C(=O)N(C7CCC(=O)NC7=O)C8=O)C6)CC5)C4)cc3)nc12` (stereo partly drawn): the Emax worked out at 32.8%.
With `NC(=O)c1cccc2cn(-c3ccc([C@@H]4CCCN(C(=O)C5CCN(CC6CCN(c7ccc8c(c7)C(=O)N(C7CCC(=O)NC7=O)C8=O)CC6)CC5)C4)cc3)nc12` (stereo partly drawn), the Emax stood at 30.2%.
On to `NC(=O)c1cccc2cn(-c3ccc([C@@H]4CCCN(C(=O)CC5CCN(C(=O)CC6CCN(CC7CCN(c8ccc9c(c8)C(=O)N(C8CCC(=O)NC8=O)C9=O)CC7)CC6)CC5)C4)cc3)nc12` (stereo partly drawn), for which the Emax is 65.1%.
As to `NC(=O)c1cccc2cn(-c3ccc([C@@H]4CCCN(C(=O)CC5CCN(CCC6CCN(CC7CCN(c8ccc9c(c8)C(=O)N(C8CCC(=O)NC8=O)C9=O)C7)CC6)CC5)C4)cc3)nc12` (stereo partly drawn), the Emax was determined as 33.6%.
For the molecule `NC(=O)c1cccc2cn(-c3ccc([C@@H]4CCCN(C(=O)CC5CCN(C(=O)CC6CCN(C(=O)C7CCN(c8ccc9c(c8)C(=O)N(C8CCC(=O)NC8=O)C9=O)CC7)CC6)CC5)C4)cc3)nc12` (stereo partly drawn), the Emax is 6.96%.
The same measure, in the same setting: next, `NC(=O)c1cccc2cn(-c3ccc([C@@H]4CCCN(C(=O)COCCOCCOCCNc5ccc6c(c5)C(=O)N(C5CCC(=O)NC5=O)C6=O)C4)cc3)nc12` (stereo partly drawn): 37.4%; `NC(=O)c1cccc2cn(-c3ccc([C@@H]4CCCN(C(=O)CCCCCCCCNc5ccc6c(c5)C(=O)N(C5CCC(=O)NC5=O)C6=O)C4)cc3)nc12` (stereo partly drawn): 58.8%; `NC(=O)c1cccc2cn(-c3ccc([C@@H]4CCCN(C(=O)CC5CCN(C(=O)CC6CCN(CC7CCN(c8ccc9c(c8)C(=O)N(C8CCC(=O)NC8=O)C9=O)C7)CC6)CC5)C4)cc3)nc12` (stereo partly drawn): 49.8%.

System in the next data set: not listed separately
In words: Cytotoxicity against HEK293T cells assessed as inhibition of cell growth measured after 72 hrs by CCK-8 method. To be noted: human. The class given is toxicity, cell-based, HEK-293T. For orientation: Tetrazolium assays rely on reduction of a dye to a coloured formazan, in cell work by metabolically active cells.
Consider `O=C(CCCCCCCCCCC(=O)N1CCN(C(=O)c2cc(Cc3n[nH]c(=O)c4ccccc34)ccc2F)CC1)NCCNc1cccc2c1C(=O)N(C1CCC(=O)NC1=O)C2=O` (stereo not drawn), for which the IC50 at 72 h was determined as 1860 nM.

For a further data set, the system named is HCT-116. In words: Induction of apoptosis in human HCT-116 cells assessed as necrotic cells at 2.5 nM measured after 72 hrs by annexin V/FITC and PI staining based flow cytometry analysis (reference value: 0.16%). It is filed as functional.
Conditions: not given
Consider `CCc1c2c(nc3ccc(O)cc13)-c1cc3c(c(=O)n1C2)COC(=O)[C@]3(O)CC` [7-ETHYL-10-HYDROXYCAMPTOTHECIN], for which the Activity was 0.77%.

The test system of a further data set is HCT-116. The experiment in a line: Induction of apoptosis in human HCT-116 cells assessed as late apoptotic cells at 2.5 nM measured after 72 hrs by annexin V/FITC and PI staining based flow cytometry analysis (reference value: 6.80%). The class given is functional.
Conditions: not given
(In general: A flow cytometer gives signals particle by particle.)
Take `CCc1c2c(nc3ccc(O)cc13)-c1cc3c(c(=O)n1C2)COC(=O)[C@]3(O)CC` [7-ETHYL-10-HYDROXYCAMPTOTHECIN]: the Activity is reported as 17.1%.

System in the next data set: not listed separately
In words: Cytotoxicity against human BEAS-2B cells assessed as inhibition of cell growth measured after 72 hrs by CCK-8 method. It is filed as toxicity, cell-based.
Conditions: not given
Take `O=C(CCCCCCCCCCC(=O)N1CCN(C(=O)c2cc(Cc3n[nH]c(=O)c4ccccc34)ccc2F)CC1)NCCNc1cccc2c1C(=O)N(C1CCC(=O)NC1=O)C2=O` (stereo not drawn): the IC50 at 72 h is 3700 nM.

The subject of another data set is HCT-116. In words: Induction of apoptosis in human HCT-116 cells assessed as viable cells at 2.5 nM measured after 72 hrs by annexin V/FITC and PI staining based flow cytometry analysis (reference value: 89.6%). It is filed as functional. To be noted: read-out: Activity.
For the molecule `CCc1c2c(nc3ccc(O)cc13)-c1cc3c(c(=O)n1C2)COC(=O)[C@]3(O)CC` [7-ETHYL-10-HYDROXYCAMPTOTHECIN], the viability at 0.0025 µM was 76.7%.

Another data set relates to SW-620. The experiment in a line: Cytotoxicity against human SW620 cells assessed as inhibition of cell growth measured after 72 hrs by CCK-8 method. It is filed as functional, cell-based. The following applies: SW-620, 72 h.
`NC(=O)c1cccc2cn(-c3ccc([C@@H]4CCCNC4)cc3)nc12` [NIRAPARIB]: the IC50 was determined as 490 nM.
As for `O=C(CCCCCCCCCCC(=O)N1CCN(C(=O)c2cc(Cc3n[nH]c(=O)c4ccccc34)ccc2F)CC1)NCCNc1cccc2c1C(=O)N(C1CCC(=O)NC1=O)C2=O` (stereo not drawn), the IC50 is more than 10000 nM.

For another data set, the system named is LoVo. In words: Cytotoxicity against human LoVo cells assessed as inhibition of cell growth measured after 72 hrs by CCK-8 method. It is filed as functional, cell-based.
Conditions: not given
`CCc1c2c(nc3ccc(O)cc13)-c1cc3c(c(=O)n1C2)COC(=O)[C@]3(O)CC` [7-ETHYL-10-HYDROXYCAMPTOTHECIN]: the IC50 was 2.9 nM.
Still for that read-out and setting: next, `O=C(CCCCCCCCCCC(=O)N1CCN(C(=O)c2cc(Cc3n[nH]c(=O)c4ccccc34)ccc2F)CC1)NCCNc1cccc2c1C(=O)N(C1CCC(=O)NC1=O)C2=O` (stereo not drawn): more than 10000 nM.

Another data set has as its system HCT-116. In words: Cytotoxicity against human HCT-116 cells assessed as inhibition of cell growth measured after 72 hrs by CCK-8 method. It is filed as functional, cell-based. The following applies: HCT-116, 72 h.
`CCc1c2c(nc3ccc(O)cc13)-c1cc3c(c(=O)n1C2)COC(=O)[C@]3(O)CC` [7-ETHYL-10-HYDROXYCAMPTOTHECIN]: the IC50 stood at 2.9 nM.

A further data set relates to HCT-116. In words: Induction of apoptosis in human HCT-116 cells assessed as early apoptotic cells at 2.5 nM measured after 72 hrs by annexin V/FITC and PI staining based flow cytometry analysis (reference value: 3.43%).
Conditions: not given
The class given is functional.
As for `CCc1c2c(nc3ccc(O)cc13)-c1cc3c(c(=O)n1C2)COC(=O)[C@]3(O)CC` [7-ETHYL-10-HYDROXYCAMPTOTHECIN], the Activity is recorded as 5.48%.

Broadly, the DC50 is the concentration at which degradation of the target reaches its halfway point. What is called Emax is the maximal effect, on the per cent scale that the assay sets. In general, IC50 refers to the point on the concentration scale where inhibition reaches its midpoint.
